Assay results from article PMC5563285 (Protein & Cell, 2017).
Positions of bridges follow the written chain, without caps; N, C: chain ends. Residues, ends and D or L forms follow the SMILES beside them.

Each molecule was assayed against Aplysia californica acetylcholine binding protein (Ac-AChBP) (Aplysia californica) (assay: SPR).
α-conotoxin LvIA (peptide) was tested, and the Kd was 0.132 µM. Work on α-conotoxin LvIA (S4A) (peptide) yielded a Kd of 0.0238 µM. In the case of α-conotoxin LvIA (N9A) (peptide), the Kd is reported as 0.0828 µM.

These molecules were tested against T1, Ac-AChBP (acetylcholine binding protein) (Aplysia californica, UniProt Q8WSF8) (assay: biochemical).
T1 construct: The cDNA encoding the full-length Ac-AChBP was cloned into the pFastBac-Dual vector; 6xHis (C); made in house; host or cells: High Five insect cells (baculovirus, Bac-to-Bac; virus made in Sf9)
T1 sequence (Q8WSF8 20-236): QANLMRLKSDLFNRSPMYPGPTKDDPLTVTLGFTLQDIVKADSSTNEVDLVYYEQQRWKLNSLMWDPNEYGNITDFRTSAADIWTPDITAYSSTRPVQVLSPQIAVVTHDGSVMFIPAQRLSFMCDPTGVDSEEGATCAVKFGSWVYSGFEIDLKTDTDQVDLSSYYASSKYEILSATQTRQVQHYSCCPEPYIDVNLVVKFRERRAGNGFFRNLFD
`CC[C@H](C)[C@@H]1NC(=O)[C@H](CCC(=O)O)NC(=O)[C@@H]2CCCN2C(=O)[C@H](Cc2cnc[nH]2)NC(=O)[C@H](CC(=O)O)NC(=O)[C@H](C(C)C)NC(=O)[C@H](CC(N)=O)NC(=O)[C@@H]2CSSC[C@H](NC(=O)CN)C(=O)N[C@@H](CSSC[C@@H](C(N)=O)NC1=O)C(=O)N[C@@H](CO)C(=O)N[C@@H](Cc1cnc[nH]1)C(=O)N1CCC[C@H]1C(=O)N[C@@H](C)C(=O)N2` [LvIA WT] was tested, and the Kd was 0.132 µM. `CC[C@H](C)[C@@H]1NC(=O)[C@H](CCC(=O)O)NC(=O)[C@@H]2CCCN2C(=O)[C@H](Cc2cnc[nH]2)NC(=O)[C@H](CC(=O)O)NC(=O)[C@H](C(C)C)NC(=O)[C@H](C)NC(=O)[C@@H]2CSSC[C@H](NC(=O)CN)C(=O)N[C@@H](CSSC[C@@H](C(N)=O)NC1=O)C(=O)N[C@@H](CO)C(=O)N[C@@H](Cc1cnc[nH]1)C(=O)N1CCC[C@H]1C(=O)N[C@@H](C)C(=O)N2` [LvIA (N9A)] (H-GCCSHPACAVDHPEIC-NH2; disulfide 2-8, 3-16) showed a Kd of 0.0828 µM. For `CC[C@H](C)[C@@H]1NC(=O)[C@H](CCC(=O)O)NC(=O)[C@@H]2CCCN2C(=O)[C@H](Cc2cnc[nH]2)NC(=O)[C@H](CC(=O)O)NC(=O)[C@H](C(C)C)NC(=O)[C@H](CC(N)=O)NC(=O)[C@@H]2CSSC[C@H](NC(=O)CN)C(=O)N[C@@H](CSSC[C@@H](C(N)=O)NC1=O)C(=O)N[C@@H](C)C(=O)N[C@@H](Cc1cnc[nH]1)C(=O)N1CCC[C@H]1C(=O)N[C@@H](C)C(=O)N2` [LvIA (S4A)] (H-GCCAHPACNVDHPEIC-NH2; disulfide 2-8, 3-16), the Kd was 0.0238 µM. `CC[C@H](C)[C@@H]1NC(=O)[C@H](CCC(=O)O)NC(=O)[C@@H]2CCCN2C(=O)[C@H](Cc2cnc[nH]2)NC(=O)[C@H](C)NC(=O)[C@H](C(C)C)NC(=O)[C@H](CC(N)=O)NC(=O)[C@@H]2CSSC[C@H](NC(=O)CN)C(=O)N[C@@H](CSSC[C@@H](C(N)=O)NC1=O)C(=O)N[C@@H](CO)C(=O)N[C@@H](Cc1cnc[nH]1)C(=O)N1CCC[C@H]1C(=O)N[C@@H](C)C(=O)N2` [LvIA (D11A)] (H-GCCSHPACNVAHPEIC-NH2; disulfide 2-8, 3-16) gave a Kd of 0.0175 µM.
